Experimental data as given in patent publication US5726162A (priority 1996, dated 1998).

How the values were obtained:
[1] = system: fungal inoculum; experiment: organism not typed; format: cell-based; details: read-out: % growth inhibition
[2] = system: fungal mycelium; experiment: organism not typed; format: cell-based; details: read-out: % growth inhibition
[3] = system: Magnaporthe grisea (Pyricularia oryzae); experiment: whole plant or invertebrate; format: in vivo, Magnaporthe grisea (Pyricularia oryzae) on M201 rice plants; details: Pyricularia oryzae, 144 h, read-out: % Control RB

Question: `CCC#CCN1N=C(c2cc(Cl)c(C)c(Cl)c2)CCC1=O` [Compound 44] was tested. Which inhibition at 5 ppm [1] did it give?
Answer: 87%

Question: Which results are given for `CCC#CCn1nc(-c2ccc(Cl)cc2)c(F)cc1=O` [Compound 123]?
Answer: inhibition at 100 ppm [2]: 100%; pest or weed control at 200 ppm [3]: 99%

Question: For `CCC#CCN1N=C(c2ccc(Cl)cc2)C(F)(F)C(F)(F)C1=O` [Compound 106], which inhibition at 50 ppm [2] is on record?
Answer: 81%

Question: What about the pest or weed control at 200 ppm [3] of the same compound?
Answer: 0%

Question: For `O=C1CCC(c2ccc(Cl)cc2)=NN1CC#Cc1cccs1` [Compound 67], which inhibition at 5 ppm [1] is on record?
Answer: 83.6%

Question: What does the source list for `CC#CCN1N=C(c2ccc(Cl)c(C)c2)CCC1=O` [Compound 63]?
Answer: inhibition at 200 ppm [2]: 100%; pest or weed control at 200 ppm [3]: 0%

Question: Which results are given for `CCC#CCN1N=C(c2ccc(C#N)cc2)CCC1=O` [Compound 64]?
Answer: inhibition at 25 ppm [2]: 100%; pest or weed control at 200 ppm [3]: 0%

Question: `CC#CCN1N=C(c2ccccc2)CC(c2ccccc2)C1=O` (stereo not shown) [Compound 30] was tested. Which inhibition at 50 ppm [1] did it give?
Answer: 41.2%

Question: Which results are given for `CCC#CCN1N=C(c2ccc(Br)cc2)CCC1=O` [Compound 91]?
Answer: inhibition at 1 ppm [2]: 100%; pest or weed control at 200 ppm [3]: 90%

Question: How did the inhibition at 200 ppm [2] turn out when `CC#CCN1N=C(c2ccncc2)CCC1=O` [Compound 133] was run?
Answer: 67.4%

Question: And the pest or weed control at 200 ppm [3]?
Answer: 0%

Question: With `C[Si](C)(C)C#CCN1N=C(c2ccc(Cl)cc2)CCC1=O` [Compound 86] as the compound, how does the inhibition at 100 ppm [2] read?
Answer: 80%

Question: And the pest or weed control at 200 ppm [3]?
Answer: 0%

Question: What does the source list for `O=C(O)C#CCN1N=C(c2ccc(Cl)cc2)CCC1=O` [Compound 54, 6-(4-chlorophenyl)-2-(3'-carboxy-2'-propynyl)-4,5-dihydropyridazinone]?
Answer: inhibition at 200 ppm [2]: 71.4%; pest or weed control at 200 ppm [3]: 0%

Question: `O=CC#CCN1N=C(c2ccc(Cl)cc2)CCC1=O` [Compound 88, 6-(4-chlorophenyl)-2-(4-aldehydo-2'-butynyl)-4,5-dihydropyridazinone] was tested. Which inhibition at 100 ppm [2] did it give?
Answer: 80%

Question: And the pest or weed control at 200 ppm [3]?
Answer: 0%

Question: For `O=C1CCC(c2ccc(Cl)cc2)=NN1CC#CC1CCCCC1` [Compound 94], which inhibition at 10 ppm [2] is on record?
Answer: 22.2%

Question: And the pest or weed control at 200 ppm [3]?
Answer: 0%

Question: For `CC#CCN1N=C(C=Cc2ccc(Cl)cc2)CCC1=O` [Compound 24], which inhibition at 200 ppm [2] is on record?
Answer: 6.1%

Question: What about the pest or weed control at 200 ppm [3] of the same compound?
Answer: 0%

Question: For `O=C1CCC(c2ccc(Cl)cc2)=NN1CC#CCC1CCCCC1` [Compound 95], which inhibition at 10 ppm [2] is on record?
Answer: 22.2%

Question: And the pest or weed control at 200 ppm [3]?
Answer: 0%

Question: How did the inhibition at 50 ppm [1] turn out when `O=C1CCC(c2ccc(Cl)cc2)=NN1CC=CBr` [Compound 69] was run?
Answer: 100%

Question: Which results are given for `CCC#CCN1N=C(c2ccc(Cl)c(F)c2)CCC1=O` [Compound 74, 6-(4-chloro-3-fluorophenyl)-2-(2'-pentynyl)-4,5-dihydropyridazinone]?
Answer: inhibition at 1 ppm [2]: 100%; pest or weed control at 200 ppm [3]: 75%

Question: With `CCC#CCN1N=C(c2ccc(F)cc2)CCC1=O` [Compound 82] as the compound, how does the inhibition at 2.5 ppm [2] read?
Answer: 100%

Question: What about the pest or weed control at 200 ppm [3] of the same compound?
Answer: 0%

Question: How did the inhibition at 10 ppm [2] turn out when `CCC#CCN1N=C(c2cnc3ccccc3n2)CCC1=O` [Compound 230, 6-(2-quinoxaline)-2-(2'-pentynyl)-4,5-dihydropyridazinone] was run?
Answer: 30%

Question: Which results are given for `CCOC(C#CCN1N=C(c2ccc(Cl)cc2)CCC1=O)OCC` [Compound 87, 6-(4-chlorophenyl)-2-(4'-aldehydo-2'-butynyl)-4,5-dihydropyridazinone, diethyl acetal]?
Answer: inhibition at 100 ppm [2]: 100%; pest or weed control at 200 ppm [3]: 75%

Question: `CCC#CCN1N=C2c3ccc(Cl)cc3CC2CC1=O` (stereo not shown) [Compound 143, 7-chloro-2,4,4a,5-tetrahydro-2-(2-pentyn-1-yl)-indeno[1,2-c]-pyridazin-3-one] was tested. Which inhibition at 1 ppm [2] did it give?
Answer: 100%

Question: What about the pest or weed control at 200 ppm [3] of the same compound?
Answer: 99%

Question: Which inhibition at 2.5 ppm [2] does the source give for `CCC#CCN1N=C(c2ccc(OC)cc2)CCC1=O` [Compound 81] here?
Answer: 95.8%

Question: What about the pest or weed control at 200 ppm [3] of the same compound?
Answer: 95%

Question: Which inhibition at 10 ppm [1] does the source give for `CC#CCN1N=C(c2ccc(C(F)(F)F)cc2)CCC1=O` [Compound 42] here?
Answer: 91.7%

Question: For `C#CCn1nc(-c2ccc(Cl)cc2)ccc1=O` [Compound 118], which inhibition at 200 ppm [2] is on record?
Answer: 100%

Question: And the pest or weed control at 200 ppm [3]?
Answer: 0%

Question: With `CCC#CCN1N=C(c2ccc([N+](=O)[O-])cc2)CCC1=O` [Compound 65] as the compound, how does the inhibition at 50 ppm [2] read?
Answer: 84%

Question: What about the pest or weed control at 200 ppm [3] of the same compound?
Answer: 0%

Question: For `CCC#CCN1N=C(c2ccccc2Cl)CCC1=O` [Compound 211, 6-(2-chlorophenyl)-2-(2'-pentynyl)-4,5-dihydropyridazinone], which inhibition at 50 ppm [2] is on record?
Answer: 30%

Question: How did the inhibition at 10 ppm [2] turn out when `Cc1noc(C)c1CN1N=C(c2ccc(Cl)cc2)CCC1=O` [Compound 231, 6-(4-chlorophenyl)-2-(3,5-dimethyl-4-isoxolylmethyl)-4,5-dihydropyridazinone] was run?
Answer: 36%

Question: How did the inhibition at 100 ppm [2] turn out when `O=C1CCC(c2ccc(Cl)cc2)=NN1CC=C(Br)CBr` [Compound 75] was run?
Answer: 100%

Question: What about the pest or weed control at 200 ppm [3] of the same compound?
Answer: 0%

Question: `CC#CCN1N=C(c2ccc(Cl)c(F)c2)CCC1=O` [Compound 83] was tested. Which inhibition at 0.5 ppm [2] did it give?
Answer: 81.3%

Question: What about the pest or weed control at 200 ppm [3] of the same compound?
Answer: 90%

Question: With `CCC#CCSc1ccc(-c2ccc(Cl)cc2)nn1` [Compound 152, 6-(4-chlorophenyl)-3-(2-pentyn-1-thio)-pyridazine] as the compound, how does the inhibition at 10 ppm [2] read?
Answer: 18.2%

Question: What about the pest or weed control at 200 ppm [3] of the same compound?
Answer: 0%

Question: For `CCC#CCN1N=C(c2cccc(OC)c2)CCC1=O` [Compound 219, 6-(3-methoxyphenyl)-2-(2'-pentynyl)-4,5-dihydropyridazinone], which inhibition at 50 ppm [2] is on record?
Answer: 100%

Question: Which inhibition at 0.5 ppm [2] does the source give for `C#CC#CCn1nc(-c2ccc(Cl)cc2)ccc1=O` [Compound 125] here?
Answer: 89.5%

Question: What about the pest or weed control at 200 ppm [3] of the same compound?
Answer: 0%

Question: Which inhibition at 10 ppm [2] does the source give for `CCC#CCN1N=C(c2cc(F)cc(F)c2)CCC1=O` [Compound 98] here?
Answer: 40%

Question: For `Cc1ccc(Cn2nc(-c3ccc(Cl)cc3)ccc2=O)o1` [Compound 204, 6-(4-chlorophenyl)-2-(5-methyl-2-furanylmethylene)-pyridazinone], which inhibition at 10 ppm [2] is on record?
Answer: 100%

Question: `C#CC#CCN1N=C(c2ccc(Cl)cc2)CCC1=O` [Compound 93, 6-(4-chlorophenyl)-2-(2',4'-pentadiynyl)-4,5-dihydropyridazinone] was tested. Which inhibition at 0.5 ppm [2] did it give?
Answer: 100%

Question: What about the pest or weed control at 200 ppm [3] of the same compound?
Answer: 0%

Question: `CC(=O)CC(C)=NNC(=O)CN1N=C(c2ccc(Cl)cc2)CCC1=O` [Compound 234, 6-(4-chlorophenyl)-2-[N-acetylhydrazide-(N'-2,4-pentanedione-hydrazone)]-4,5-dihydropyridazinone] was tested. Which inhibition at 100 ppm [2] did it give?
Answer: 42%

Question: How did the inhibition at 10 ppm [2] turn out when `CCC#CCn1nc(-c2ccccc2)c(-c2ccccc2)c(C#N)c1=O` [Compound 228, 5,6-diphenyl-4-cyano-2-(2'-pentynyl)-pyridazinone] was run?
Answer: 50%

Question: `CCCCCC#CCN1N=C(c2ccc(Cl)cc2)CCC1=O` [Compound 96] was tested. Which inhibition at 10 ppm [2] did it give?
Answer: 94.5%

Question: And the pest or weed control at 200 ppm [3]?
Answer: 0%

Question: Which inhibition at 1 ppm [2] does the source give for `CCC#CCN1N=C(c2ccc(Br)c(F)c2)CCC1=O` [Compound 97] here?
Answer: 100%

Question: Which results are given for `CCC#CCN1N=C(c2ccc(OCC)cc2)CCC1=O` [Compound 66]?
Answer: inhibition at 25 ppm [2]: 100%; pest or weed control at 200 ppm [3]: 0%

Question: Which inhibition at 10 ppm [2] does the source give for `CCC#CCn1nc2c(cc1=O)CCc1cc(Cl)ccc1-2` [Compound 202, 5 6-dihydro-8-chlorobenzo[h]cinnolin-3-(2'-pentynyl)-one] here?
Answer: 100%

Question: For `CCC#CCN1N=C(c2cccc(Cl)c2)CCC1=O` [Compound 216, 6-(3-chlorophenyl)-2-(2'-pentynyl)-4,5-dihydropyridazinone], which inhibition at 50 ppm [2] is on record?
Answer: 100%

Question: How did the inhibition at 50 ppm [2] turn out when `CCC#CCN1N=C(c2ccccc2OC)CCC1=O` [Compound 212, 6-(2-methoxyphenyl)-2-(2'-pentynyl)-4,5-dihydropyridazinone] was run?
Answer: 35%

Question: For `CCCCCCCC#CCN1N=C(c2ccc(Cl)cc2)CCC1=O` [Compound 85], which inhibition at 100 ppm [2] is on record?
Answer: 100%

Question: And the pest or weed control at 200 ppm [3]?
Answer: 0%

Question: What does the source list for `CCC#CCn1nc(-c2ccc(Cl)cc2)c(F)c(F)c1=O` [Compound 122, 6-(4-chlorophenyl)-4,5-difluoro-2-(2'-pentynyl)-pyridazinone]?
Answer: inhibition at 100 ppm [2]: 84.6%; pest or weed control at 200 ppm [3]: 0%

Question: How did the inhibition at 10 ppm [2] turn out when `CCC#CCN1N=C(c2ccc(Cl)cc2)CC=C1OC` [Compound 158, 6-(4-chlorophenyl)-3-methoxy-2-(2'-pentyn-1-yl)-2,5-dihydropyridazine] was run?
Answer: 100%

Question: And the pest or weed control at 200 ppm [3]?
Answer: 0%

Question: How did the inhibition at 100 ppm [2] turn out when `CCC#CCN1N=C(c2ccc(Cl)cc2)CSC1=O` [Compound 165, 5-(4-chlorophenyl)-3-(2-pentyn-1-yl)-3H,6H-1,3,4-thiadiazin-2-one] was run?
Answer: 100%

Question: With `CCC#CCN1N=C(c2ccc(Cl)cc2OC)CCC1=O` [Compound 99] as the compound, how does the inhibition at 1 ppm [2] read?
Answer: 100%

Question: What about the pest or weed control at 200 ppm [3] of the same compound?
Answer: 0%

Question: `CCC#CCN1N=C(c2ccc(Cl)cc2)COC1=O` [Compound 162, 2-(4-chlorophenyl)-3-(2-pentyn-1-yl)-3H, 6H-1,3,4-oxadiazin-2-one] was tested. Which inhibition at 10 ppm [2] did it give?
Answer: 96.9%

Question: With `CCC#CCN1N=C(CCc2ccc(Cl)cc2)CCC1=O` [Compound 206, 6-(4-chlorophenethyl)-2-(2'-pentynyl)-4,5-dihydropyridazinone] as the compound, how does the inhibition at 1 ppm [2] read?
Answer: 14.3%

Question: For `CCC#CCN1N=C(c2cccc(C)c2)CCC1=O` [Compound 215, 6-(3-methylphenyl)-2-(2'-pentynyl)-4,5-dihydropyridazinone], which inhibition at 50 ppm [2] is on record?
Answer: 100%

Question: With `CCC#CCN1N=C(c2ccccc2)COC1=O` [Compound 164] as the compound, how does the inhibition at 100 ppm [2] read?
Answer: 14.2%

Question: For `O=C(CN1N=C(c2ccc(Cl)cc2)CCC1=O)NN=Cc1cc(Cl)cc(Cl)c1O` [Compound 240, 6-(4-chlorophenyl)-2-[N-acetylhydrazide-(N'-3,5-dichloro-2-hydroxy-phenylhydrazone)]-4,5-dihydropyridazinone], which inhibition at 100 ppm [2] is on record?
Answer: 14%

Question: `CCC#CCN1N=C(c2cccc(C(F)(F)F)c2)CCC1=O` [Compound 213, 6-(3-trifluoromethylphenyl)-2-(2'-pentynyl)-4,5-dihydropyridazinone] was tested. Which inhibition at 50 ppm [2] did it give?
Answer: 100%

Question: How did the inhibition at 100 ppm [2] turn out when `NNC(=O)CN1N=C(c2ccc(Cl)cc2)CCC1=O` [Compound 233, 6-(4-chlorophenyl)-2-(acetyl hydrazide)4,5-dihydropyridazinone] was run?
Answer: 21%

Question: `CCC#CCN1N=C(c2ccc(C)c(OC)c2)CCC1=O` [Compound 220, 6-(3-methoxy-4-methylphenyl)-2-(2'-pentynyl)-4,5-dihydropyridazinone] was tested. Which inhibition at 50 ppm [2] did it give?
Answer: 100%

Question: For `CCC#CCn1nc(-c2csc3ccccc23)ccc1=O` [Compound 236, 6-(3-thianaphthene)-2-(2'-pentynyl)-pyridazinone], which inhibition at 100 ppm [2] is on record?
Answer: 100%

Question: `CCC#CCN1N=C(c2cccc(F)c2)CCC1=O` [Compound 214, 6-(3-fluorophenyl)-2-(2'-pentynyl)-4,5-dihydropyridazinone] was tested. Which inhibition at 50 ppm [2] did it give?
Answer: 100%
